The text below walks through data of patent US20030207813A1, “Retroviral protease inhibitor combinations” (priority 1995, published 2003).

The subject of assay [1] is RFR2 (RFR cloned by three rounds of limiting dilution). In words: CEM-T4 cell infection assay, reverse transcriptase readout, resistant isolate RFR2. The class given is cell-based, HIV-1. To be noted: Human immunodeficiency virus 1, 168 h, Table 6, CEM-T4 cells, 7 days, read-out: Virus Isolate (EC50 ng/mL) RFR2. An excerpt: (§1) RF represents the HIV-1 strain HIV-LRF and RFR represents a mixture of resistant strains obtained by selection of RF against the compound of Example 1. RFR comprises a mixture of viral strains having protease genotypes of G48V (14/40 clones); G48V, V82A (18/40 clones); G48V, L90S (2/40 clones); G48V, 154T, V82A (1/40 clones); G48M (1/40 clones); G48V, Q61H (1/40 clones); V13I, G48V (1/40 clones); G48V, F53L, V82A (1/40 clones); and G48V, V82A, C95Y (1/40 clones). RFR2 represents a mixture of resistant strains obtained by cloning RFR by three rounds of growth at limiting dilution. RFR2 comprises a mixture of viral strains having protease genotypes of G48V, V82A (13/15 clones); G17E, G48V, V82A (1/15 clones); and G48V, V82A, N37D, N88D (1/15 clones). RFRR represents a mixture of resistant strains obtained by selection of RF against the compounds of Examples 1 and 2 and then cloning by three rounds of growth at limiting dilution. RFRR comprises a mixture of viral strains having protease genotypes of G48V, 154T, L63P, V82A (7/9 clones); G48V, 154T, L63P, V82A, N88S (1/9 clones); and G48V, 154T, L63P, G73M, V82A (1/9 clones). SF162 represents the HIV-1 strain SF-162 and SF162R represents a mixture of resistant strains obtained by selection of SF162 against the compound of Example 1. SF162R comprises a mixture of viral strains having protease genotypes of M461, F53L, L63P, A71V, N88D (2/3 clones); and M46I, F53L, L63P, A71V, N88D, Q92R (1/3 clones). 89-959 represents the HIV-1 strain 89-959 and 89-959R represents a mixture of resistant strains obtained by selection of 89-959 against the compound of Example 2. 89-959R comprises a mixture of viral strains having protease genotypes of N88S (4/5 clones); and D25N, T26A, D30N, D37N, R41K, G73D, R87K, N88S (1/4 clones). NL4 represents the HIV-1 strain HIV-1NL4-3. NL4(G48V) represents a strain having a synthetically generated site-directed mutation in the protease from glycine to valine at amino acid position number 48. NL4(I84V) represents a strain having a synthetically generated site-directed mutation in the protease from isoleucine to valine at amino acid position number 84. NL4(R8Q,M46I) represents a strain having synthetically generated site-directed mutations in the protease from arginine to glutamine at amino acid position number 8 and methionine to isoleucine at amino acid position number 46. NL4(P22-538) represents a mixture of resistant strains obtained by selection of HIV-1NL4-3 against the compound of Example 10 after 22 passages comprising protease genotypes M46I, L63P, A71V, V82F, I84V (4/10); M46I, L63P, V82F, I84V (3/10); and M46I, A71V, V82F, I84V (3/10). NL4(P37-538) represents resistant strains obtained by selection of HIV-1NL4-3 against the compound of Example 10 after 37 passages comprising protease genotype M46I, L63P, A71V, 184A. NL4(538/524) represents resistant strains obtained by selection of NL4(P22-538) against the compound of Example 5 after 24 passages comprising protease genotype M46I, L63P, A71V, 184A. NL4(538/P7-AG) represents a mixture of resistant strains obtained by selection of NL4(P22-538) against the compound of Example 12 after 7 passages comprising protease genotypes M46I, L63P, A71V, 184A; and V321, V82I. NL4(538/P24-AG) represents resistant strains obtained by selection of NL4(P22-538) against the compound of Example 12 after 24 passages comprising protease genotype M46I, L63P, A71V, 184A. NLA(P19-003) represents resistant strains obtained by selection of HIV-1^NL4-3 against the compound of Example 9 after 19 passages comprising protease genotype R8K, M46I. NL4(P34-003) represents resistant strains obtained by selection of HIV-1^NL4-3 against the compound of Example 9 after 34 passages comprising protease genotype R8K, M46I, L63P, A71V, L90M.
(§2) The viral isolate resistance results summarized in Tables 4-6 were generated according to the following assay procedure or minor modifications thereof. Assays are performed in 96-well tissue culture plates. […]

In assay [2] the test system is RFRR (resistant strains selected from RF against Examples 1 and 2). In words: CEM-T4 cell infection assay, reverse transcriptase readout, resistant isolate RFRR. The class given is cell-based, HIV-1. The settings on record: Human immunodeficiency virus 1, 168 h, Table 6, CEM-T4 cells, 7 days, read-out: Virus Isolate (EC50 ng/mL) RFRR.
Description: as §1, §2

In brackets after ≈: the same amount, converted by molar mass.

Take `CC(C)CN(C[C@@H](O)[C@H](Cc1ccccc1)NC(=O)[C@H](CC(N)=O)NC(=O)c1ccc2ccccc2n1)C(=O)NC(C)(C)C` (relative stereo) [Example 1, [1S-[1R*(R*),2S*]]-N^1-[3-[[[(1,1-dimethylethyl)amino]carbonyl])2-methylpropyl)amino]-2-hydroxy-1-(phenylmethyl)propyl]-2-[(2-quinolinylcarbonyl)amino]-butanediamide]: the results for the EC50 in assay [1] and in assay [2] were 880 ng/mL (≈ 1.46 µM) and 5610 ng/mL (≈ 9.27 µM), respectively.
With `CC(C)(C)NC(=O)[C@@H]1CC2CCCC[C@@H]2CN1C[C@@H](O)[C@H](Cc1ccccc1)NC(=O)[C@H](CC(N)=O)NC(=O)c1ccc2ccccc2n1` (stereo in doubt) [Example 6, N-tert-Butyl decahydro-2-[2(R)-hydroxy-4-phenyl-3(S)-[[N-(2-quinolylcarbonyl)-L-asparaginyl]amino]butyl]-(4aR,8aS)-isoquinoline-3(S)-carboxamide], the results for the EC50 in assay [1] and in assay [2] were 31 ng/mL (≈ 0.0462 µM) and 962 ng/mL (≈ 1.43 µM), respectively.
On the same counts, the results for `CNCC(=O)N[C@H](C(=O)N[C@@H](Cc1ccccc1)[C@H](O)CN(CCC(C)C)C(=O)NC(C)(C)C)C(C)(C)C` [Example 2, (2R,3S)-3-(N-methylaminoacetyl-L-tert-butylglycinyl)amino-1-(N-isoamyl-N-(tert-butylcarbamoyl))amino-4-phenyl-2-butanol] are 367 ng/mL (≈ 0.688 µM) and 1110 ng/mL (≈ 2.08 µM).
On the same counts, the results for `CC(C)(C)NC(=O)[C@@H]1CN(Cc2cccnc2)CCN1C[C@@H](O)C[C@@H](Cc1ccccc1)C(=O)N[C@H]1c2ccccc2C[C@H]1O` [Example 5, N-(2(R)-Hydroxy-1(S)-indanyl)-2(R)-phenylmethyl-4(S)-hydroxy-5-(1-(4-(3-pyridylmethyl)-2(S)-N′-(t-butylcarboxamido)-piperazinyl))-pentaneamide] are 57 ng/mL (≈ 0.0929 µM) and 982 ng/mL (≈ 1.6 µM).
